Experimental data taken from patent publication US12492173B2, “Herbicidal substituted N-tetrazolyl aryl carboxamides” (Bayer Aktiengesellschaft, priority 2019, dated 2025).

Experiments:
Type in all cases: in vivo
[1] = test system: Viola tricolor; assay: Pre-emergence herbicidal action, VIOTR; settings: dosage 320 g/ha; for herbicidal activity VIOTR: scored visually after 3 weeks vs untreated controls (100% = plants have died)
Method in brief: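 Herbicidal activity is expressed in percent, scored by eye after a 3-week greenhouse period, with 0% matching untreated plants and 100% meaning death. Compounds, as wettable powders or emulsion concentrates, are applied pre-emergence to the covering soil.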

[2] = test system: Abutilon theophrasti; assay: Post-emergence herbicidal action, ABUTH; set-up: key: % herbicidal action vs untreated; 100 = plants died, 0 = like control
Method in brief: (§1)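 Greenhouse weeds grown in sandy loam were sprayed at the one-leaf stage, 2–3 weeks after sowing, with WP or EC formulations at 600–800 l/ha water plus 0.2% wetting agent. Damage scored visually about 3 weeks later, in percent against untreated controls (100% = plants dead).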

[3] = test system: Alopecurus myosuroides; assay: Post-emergence herbicidal action, ALOMY; set-up: key: % herbicidal action vs untreated; 100 = plants died, 0 = like control
Method in brief: as §1

[4] = test system: Amaranthus retroflexus; assay: Post-emergence herbicidal action, AMARE; set-up: key: % herbicidal action vs untreated; 100 = plants died, 0 = like control
Method in brief: as §1

[5] = test system: Pharbitis purpurea; assay: Post-emergence herbicidal action, PHBPU
Method in brief: as §1

[6] = test system: Veronica persica; assay: Post-emergence herbicidal action, VERPE; set-up: key: % herbicidal action vs untreated; 100 = plants died, 0 = like control
Method in brief: as §1

Structure (SMILES) | herbicidal activity VIOTR [1] | herbicidal action ABUTH ([2]; post-emergence, dosage 80 g/ha) | herbicidal action ALOMY ([3]; post-emergence, dosage 80 g/ha) | herbicidal action AMARE ([4]; post-emergence, dosage 80 g/ha) | herbicidal action PHBPU ([5]; post-emergence, dosage 80 g/ha) | herbicidal action VERPE ([6]; post-emergence, dosage 80 g/ha) | herbicidal action VIOTR [1] | herbicidal action ABUTH ([2]; Dosage 80 g/ha) | herbicidal action ALOMY ([3]; Dosage 80 g/ha) | herbicidal action AMARE ([4]; Dosage 80 g/ha) | herbicidal action PHBPU ([5]; Dosage 80 g/ha) | herbicidal action VERPE ([6]; Dosage 80 g/ha)
CCSCc1c(C(F)(F)F)ccc(C(=O)Nc2nnnn2CC)c1Cl [Example 2-299] | 100% | 100% | 90% | 90% | 90% | 100% |  |  |  |  |  | 
CCn1nnnc1NC(=O)c1ccc(C(F)(F)F)c(C[S+]([O-])CC)c1Cl (stereo not drawn) [Example 2-300] | 100% | 90% | 90% | 100% | 90% | 100% |  |  |  |  |  | 
CCn1nnnc1NC(=O)c1ccc(C(F)(F)F)c(CS(=O)(=O)CC)c1Cl [Example 2-301] |  |  |  |  |  |  | 100% | 80 | 80 | 80 | 90 | 100
CCn1nnnc1NC(=O)c1ccc(C(F)(F)F)c(CSCCOC)c1Cl [Example 2-305] | 100% | 100% | 100% | 100% | 100% | 100% |  |  |  |  |  | 
CCn1nnnc1NC(=O)c1ccc(C(F)(F)F)c(CSCC(F)(F)F)c1Cl [Example 2-311] | 100% |  |  |  |  |  |  | 90 | 90 | 100 | 90 | 100
CCn1nnnc1NC(=O)c1ccc(C(F)F)c(CSC)c1Cl [Example 2-320] | 100% |  |  |  |  |  |  | 100 | 100 | 100 | 90 | 100
CCn1nnnc1NC(=O)c1ccc(C(F)F)c(CS(C)(=O)=O)c1Cl [Example 2-322] | 100% | 100% | 80% | 80% | 90% | 90% |  |  |  |  |  | 
CCSCc1c(C(F)F)ccc(C(=O)Nc2nnnn2CC)c1Cl [Example 2-323] | 100% | 100% | 80% | 80% | 90% | 100% |  |  |  |  |  | 
CCn1nnnc1NC(=O)c1ccc(C(F)F)c(C[S+]([O-])CC)c1Cl (stereo not drawn) [Example 2-324] | 100% | 100% | 90% | 100% | 100% | 100% |  |  |  |  |  | 
CCn1nnnc1NC(=O)c1ccc(C(F)F)c(CS(=O)(=O)CC)c1Cl [Example 2-325] | 100% |  |  |  |  |  |  | 100 | 80 | 90 | 90 | 90
CCn1nnnc1NC(=O)c1ccc(I)c(C[S+](C)[O-])c1Cl (stereo not drawn) [Example 2-363] | 100% |  |  |  |  |  |  | 100 | 90 | 100 | 90 | 100
CCn1nnnc1NC(=O)c1ccc(C(F)(F)F)c(C[S+]([O-])CC)c1Br (stereo not drawn) [Example 2-384] | 100% | 100% | 90% | 90% | 90% | 100% |  |  |  |  |  | 
CCn1nnnc1NC(=O)c1ccc(C(F)(F)F)c(CS(=O)(=O)CC)c1Br [Example 2-385] | 100% | 100% | 80% | 90% | 80% | 100% |  |  |  |  |  | 
CCn1nnnc1NC(=O)c1ccc(Cl)c(CSC)c1Cl [Example 2-559] |  |  |  |  |  |  | 100% | 90 | 90 | 100 | 100 | 100
CCCn1nnnc1NC(=O)c1ccc(C(F)(F)F)c(C[S+](C)[O-])c1SC (stereo not drawn) [Example 3-162] | 100% | 100% | 90% | 100% | 90% | 100% |  |  |  |  |  | 
CCCn1nnnc1NC(=O)c1ccc(C(F)(F)F)c(CS(C)(=O)=O)c1SC [Example 3-163] | 100% |  |  |  |  |  |  | 100 | 90 | 90 | 90 | 100
C=CCSCc1c(C(F)(F)F)ccc(C(=O)Nc2nnnn2CCC)c1Cl [Example 3-308] | 100% |  |  |  |  |  |  | 100 | 100 | 100 | 90 | 80
CCCn1nnnc1NC(=O)c1ccc(C(F)(F)F)c(CSCC(F)(F)F)c1Cl [Example 3-311] |  |  |  |  |  |  | 100% | 100 | 100 | 100 | 100 | 80
CCCn1nnnc1NC(=O)c1ccc(C(F)(F)F)c(CSCC2CC2)c1Cl [Example 3-314] | 100% | 100% | 100% | 100% | 100% | 100% |  |  |  |  |  | 
CCCn1nnnc1NC(=O)c1ccc(C(F)F)c(CSCC)c1Cl [Example 3-323] | 100% |  |  |  |  |  |  | 100 | 80 | 90 | 90 | 90
CCCn1nnnc1NC(=O)c1ccc(I)c(C[S+](C)[O-])c1Cl (stereo not drawn) [Example 3-363] |  |  |  |  |  |  | 100% | 90 | 80 | 100 | 90 | 100
CCCn1nnnc1NC(=O)c1ccc(C(F)(F)F)c(C[S+]([O-])CC)c1Br (stereo not drawn) [Example 3-384] | 100% |  |  |  |  |  |  | 100 | 80 | 90 | 80 | 100
